Data on three compounds can be found in US11666577B2 (National Institute of Biological Sciences, Beijing, priority 2018, dated 2023).

SMILES strings stand for the structures. Like-named read-outs stand apart in the source and are kept apart here.

One assay addresses RIP3 (Homo sapiens, UniProt Q9Y572). As to the kind of experiment: RIP3 kinase activity enzymatic assay. The assay is classed as biochemical. The method, then:
(§1) To determine whether the direct target of this series of compounds is MLKL, we performed activity based protein profiling (ABPP). Compound 12, an affinity probe, was incubated with MLKL-flag-HT-29 cell lysates for 2 hours, followed by a click reaction to conjugate the probe to a biotin-tag. The biotin-labeled compound-protein complexes were pulled down and analysed via SDS-PAGE.

A further assay concerns pMLKL. The assay is described as follows: Immunofluorescence staining of pMLKL in HT-29 cells. The assay is classed as cell-based, human. Particulars: monoclonal anti-pMLKL antibody, Experimental-section numbering. The source says: This is a crucial step in the translocation of MLKL from the cytoplasm to the cell membrane, where it mediates ion influx and/or causes the disruption of cell structures.^[5] To evaluate the mechanism of this series of compounds on MLKL, we detected the status (state of oligomerization and phosphorylation) of MLKL under TSZ stimulation in the presence of compound 12 or 15. […] Next, we evaluated the effects of MLKL inhibitors on the translocation of MLKL from the cytoplasm to the cell membrane. HT-29 cells were treated with TSZ in the presence of RIPA-56, NSA, compound 12, or compound 15 for 6 h. The proteins from cell lysates were separated and the soluble phase and membrane phase were analyzed separately with anti-MLKL and anti-pMLKL antibodies. […] We also performed immunofluorescence staining in HT-29 cells using a monoclonal anti-pMLKL antibody. After TSZ stimulation, large, bright-green fluorescent dots (pMLKL) were present in the plasma membrane. […] Sun, X. Wang, Trends Biochem. Sci 2014, 39, 587-593; bM. Pasparakis, P. Vandenabeele, Nature 2015, 517, 311-320. • 2. N. Holler, R. Zaru, O. Micheau, M. Thome, A. Attinger, S. Valitutti, J.-L. Bodmer, P. Schneider, B. Seed, J. Tschopp, Nat. Immunol. 2000, 1, 489-495. • 3. aS. He, L. Wang, L. Miao, T. Wang, F. Du, L. Zhao, X. Wang, Cell 2009, 137, 1100-1111; bD.-W. Zhang, J. Shao, J. Lin, N. Zhang, B.-J. Lu, S.-C. Lin, M.-Q. Dong, J. Han, Science 2009, 325, 332-336. • 4. L. Sun, H. et al. Cell 2012, 148, 213-227. • 5. aH. Wang, L. Sun, L. Su, J. Rizo, L. Liu, L.-F. Wang, F.-S. Wang, X. Wang, Mol. Cell 2014, 54, 133-146; bZ. Cai, S. Jitkaew, J. Zhao, H.-C. Chiang, S. Choksi, J. Liu, Y. Ward, L.-g. Wu, Z.-G. Liu, Nat. Cell Biol. 2014, 16, 55-65. • 6. aJ. Wu, et al., Cell Res. 2013, 23, 994-1006; bD. Ofengeim, Y. Ito, A. Najafov, Y. Zhang, B. Shan, J. P. DeWitt, J. Ye, X. Zhang, A. Chang, H. Vakifahmetoglu-Norberg, Cell reports 2015, 10, 1836-1849; cM. Pierdomenico, A. Negroni, L. Stronati, R. Vitali, E. Prete, J. Bertin, P. J. Gough, M. Aloi, S. Cucchiara, Am J. Gastroenterol. 2014, 109, 279-287. • 7. […]

A further assay has as its system HT-29 cells. The assay is described as follows: Necroptosis assay (TNF-α/Smac mimetic/z-VAD, TSZ-induced) in HT-29 cells. In kind it is cell-based, human. As to conditions: read-out: EC50 (nM), potency in TSZ-induced necroptosis assays in HT-29 cells. An outline of the steps: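 HT-29 cells were challenged with 20 ng/ml TNF-α, 100 nM Smac mimetic and 20 mM z-VAD while compound was added at the same time (library screen at 10 mM). After 24 h, viability was read as ATP luminescence (CellTiter-Glo) and normalized to DMSO-treated cells; values are means ± SD of duplicates.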

A further assay deals with T1, RIP1 (Homo sapiens, UniProt Q13546).
T1 sequence (Q13546 1-671): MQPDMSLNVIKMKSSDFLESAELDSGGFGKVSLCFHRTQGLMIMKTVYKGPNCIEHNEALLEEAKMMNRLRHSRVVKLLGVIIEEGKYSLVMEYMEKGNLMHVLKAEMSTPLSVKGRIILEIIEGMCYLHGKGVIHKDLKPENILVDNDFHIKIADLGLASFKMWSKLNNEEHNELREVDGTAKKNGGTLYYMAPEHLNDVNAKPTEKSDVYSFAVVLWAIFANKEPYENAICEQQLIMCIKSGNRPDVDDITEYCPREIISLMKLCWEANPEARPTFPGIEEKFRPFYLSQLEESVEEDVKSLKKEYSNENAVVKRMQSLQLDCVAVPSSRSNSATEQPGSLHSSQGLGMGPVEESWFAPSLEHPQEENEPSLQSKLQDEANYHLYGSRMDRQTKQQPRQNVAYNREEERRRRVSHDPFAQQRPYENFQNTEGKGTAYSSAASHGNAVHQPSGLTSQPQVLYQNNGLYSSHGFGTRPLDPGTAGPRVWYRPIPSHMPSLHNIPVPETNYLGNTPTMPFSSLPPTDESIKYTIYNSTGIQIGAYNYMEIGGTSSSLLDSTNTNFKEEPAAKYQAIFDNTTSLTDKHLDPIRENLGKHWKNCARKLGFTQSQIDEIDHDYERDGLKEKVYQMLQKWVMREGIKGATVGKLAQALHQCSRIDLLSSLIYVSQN
The assay is described as follows: RIP1 kinase activity enzymatic assay. The assay is classed as biochemical. Here is the method:
as §1

The target in another assay is VEGFR2 (Homo sapiens, UniProt P35968). As to conditions: cited from earlier work.
VEGFR2, sequence (P35968 20-1356, species assumed): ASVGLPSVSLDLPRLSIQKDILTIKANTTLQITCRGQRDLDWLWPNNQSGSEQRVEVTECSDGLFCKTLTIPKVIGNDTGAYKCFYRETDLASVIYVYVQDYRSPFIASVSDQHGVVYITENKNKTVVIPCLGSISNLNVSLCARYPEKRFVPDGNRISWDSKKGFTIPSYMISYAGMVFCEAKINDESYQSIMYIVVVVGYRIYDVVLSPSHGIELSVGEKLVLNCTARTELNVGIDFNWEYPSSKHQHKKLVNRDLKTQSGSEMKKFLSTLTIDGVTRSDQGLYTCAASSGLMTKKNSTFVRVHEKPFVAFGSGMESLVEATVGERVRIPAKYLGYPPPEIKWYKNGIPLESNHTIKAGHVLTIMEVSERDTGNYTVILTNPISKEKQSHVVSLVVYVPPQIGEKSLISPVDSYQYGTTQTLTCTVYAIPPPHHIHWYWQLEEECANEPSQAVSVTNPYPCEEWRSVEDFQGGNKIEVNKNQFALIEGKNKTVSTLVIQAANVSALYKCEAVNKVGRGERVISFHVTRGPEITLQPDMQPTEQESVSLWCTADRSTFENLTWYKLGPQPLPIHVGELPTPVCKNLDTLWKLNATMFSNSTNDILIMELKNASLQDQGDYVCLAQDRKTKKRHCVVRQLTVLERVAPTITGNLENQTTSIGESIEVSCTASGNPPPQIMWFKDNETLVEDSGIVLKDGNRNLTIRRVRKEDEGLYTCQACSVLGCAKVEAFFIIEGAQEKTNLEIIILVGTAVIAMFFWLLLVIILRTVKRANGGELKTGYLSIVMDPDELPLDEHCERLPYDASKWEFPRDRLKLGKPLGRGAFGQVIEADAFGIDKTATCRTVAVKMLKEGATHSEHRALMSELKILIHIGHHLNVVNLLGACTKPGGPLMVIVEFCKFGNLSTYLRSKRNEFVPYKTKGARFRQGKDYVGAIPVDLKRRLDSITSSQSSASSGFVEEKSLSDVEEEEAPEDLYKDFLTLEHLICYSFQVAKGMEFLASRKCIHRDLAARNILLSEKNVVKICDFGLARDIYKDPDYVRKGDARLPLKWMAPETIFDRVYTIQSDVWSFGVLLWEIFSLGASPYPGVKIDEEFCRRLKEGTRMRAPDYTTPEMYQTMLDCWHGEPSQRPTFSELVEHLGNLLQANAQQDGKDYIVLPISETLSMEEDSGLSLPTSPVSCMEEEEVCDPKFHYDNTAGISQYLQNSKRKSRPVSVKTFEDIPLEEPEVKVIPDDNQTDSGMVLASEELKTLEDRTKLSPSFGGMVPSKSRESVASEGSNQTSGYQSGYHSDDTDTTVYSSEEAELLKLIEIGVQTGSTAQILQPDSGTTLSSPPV

RIP3, sequence (Q9Y572 whole entry): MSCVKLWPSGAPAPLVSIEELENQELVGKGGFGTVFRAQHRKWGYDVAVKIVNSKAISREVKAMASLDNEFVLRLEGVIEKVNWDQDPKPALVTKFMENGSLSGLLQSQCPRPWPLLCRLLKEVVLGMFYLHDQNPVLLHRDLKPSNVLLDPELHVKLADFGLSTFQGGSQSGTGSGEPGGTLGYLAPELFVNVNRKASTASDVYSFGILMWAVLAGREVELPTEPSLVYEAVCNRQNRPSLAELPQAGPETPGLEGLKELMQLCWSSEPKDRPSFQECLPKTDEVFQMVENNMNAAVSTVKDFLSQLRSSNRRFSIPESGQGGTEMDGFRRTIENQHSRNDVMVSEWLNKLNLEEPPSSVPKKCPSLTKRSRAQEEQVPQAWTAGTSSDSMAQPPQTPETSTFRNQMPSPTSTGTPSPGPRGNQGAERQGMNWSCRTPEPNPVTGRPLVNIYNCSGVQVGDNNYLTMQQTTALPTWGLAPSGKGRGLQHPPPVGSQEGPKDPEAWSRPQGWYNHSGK

In the case of `CN(c1ccc(NC(=O)Nc2ccc(OC(F)(F)F)cc2)cc1)c1ccnc(Nc2cccc(S(N)(=O)=O)c2)n1` [GW806742X], on RIP3, the “off-target activity against RIP3” value was “off-target activities”. Further, the “pMLKL immunofluorescence after TSZ stimulation” value (from here on “pMLKL immunofluorescence”) in the assay on pMLKL is “blocked the phosphorylation of MLKL completely”. Moreover, the EC50 (in general, the midpoint of the concentration-response curve) in the assay on HT-29 cells (Homo sapiens, HT-29, 24 h) came to 589 ± 12 nM. The “off-target activity against RIP1” value at RIP1 is recorded as “off-target activities”. The “off-target activity against other kinases, including VEGFR2” value on VEGFR2 is “off-target activity”.

As for `COc1nccnc1NS(=O)(=O)c1ccc(NC(=O)/C=C/c2ccc([N+](=O)[O-])s2)cc1` [NSA, necrosulfonamide, reference compound], the “pMLKL immunofluorescence” value in the assay with pMLKL was “small pMLKL dots were dispersed in the cytoplasm”. Further, the EC50 in the assay on HT-29 cells (Experimental-section numbering (compound 1 = Series 1 compound 4), necroptosis induced for 24 h, mean of at least three independent analyses) is 447 ± 32 nM.

Regarding `CCC(C)(C)C(=O)N(O)Cc1ccccc1` [RIPA-56], the “pMLKL immunofluorescence” value in the assay on pMLKL was “blocked the phosphorylation of MLKL completely”.
